“Also recorded” adds a separate entry of the source.
Experiments:
Assay type in all cases: cell-based, human
[1] = tested on: Ras effectors ERK and AKT in DLD-1 cells; test: Western blot of downstream RAS signaling (P-ERK, P-AKT, P-MEK) in serum-starved DLD-1 cells
Text: (§1) DLD-1 (KRASWT/G13D) (clone V15, #HD PAR-086) colorectal adenocarcinoma cell line and DLD-1 knockout of mutant KRAS allele, DLD-1 KO (KRASWT/−) (clone DWT7, #HD105-002), were obtained from Horizon Discovery Ltd. (Cambridge, UK). hTERT-RPE (KRASWT/WT) immortalized retinal pigment epithelial human cell line was obtained from the […] (ATCC). DLD-1 KO cells stably expressing HA-KRAS G12V were previously generated in our laboratory (Cabot et al., 2021). All cells were grown in DMEM-HAM s F12 (1:1) supplemented with 10% foetal bovine serum (Biological Industries, Israel), penicillin, streptomycin, and nonessential amino acids. Cells were tested once per month for mycoplasma contamination.
Cells were seeded in a media containing 10% FBS for 24 hours and then they were serum starved (0.1% FBS) for the next 24 hours. Afterwards, they were incubated with the different compounds during the times specified in each figure. When indicated, also in order to activate downstream KRAS cell signalling, treatment for 10 minutes with EGF (50 ng/mL) (Sigma-Aldrich) was performed.
Proteins were resolved by SDS-PAGE, transferred onto PVDF membranes (Immobilon-P, Millipore) and Western blot was performed as previously described (Cabot et al, Oncogene 2021). The following primary antibodies were used: anti-c-RAF (BD Transduction 610151, 1:500); anti-phospho-c-RAF S338 (Cell Signaling 9427, 1:500); anti-AKT (Cell Signaling 9272, 1:1000); anti-phospho-AKT T308 (Cell Signaling 4056, 1:1000); anti-phospho-MEK1/2 S221 (Cell Signalling […]); anti-p44/42 MAPK (ERK1/2) (Cell Signaling 9102, 1:2000); anti-phospho-p44/42 MAPK(ERK1/2) T202/Y204 (Cell Signaling 4370, 1:2000); anti-HA (Sigma-Aldrich H6908, 1:1000); anti-cleaved-caspase-3 (Asp175) (Cell Signaling 9661, 1:1000); HRP-coupled secondary antibodies used: goat anti-rabbit (BioRad 170-6515, 1:3000) or goat anti-mouse (BioRad 170 6516, 1:3000).
For analysis of RAS signalling, cells were lysed in a buffer containing 67 mM Tris-HCl pH 6.8 and 2% SDS and then the samples were heated at 97° C. for 15 minutes. Protein concentration of the lysates was assessed using the Lowry method. An aliquot of […] of protein per sample was loaded onto the gels.
We first analyzed the effect of P14 on the activation of downstream RAS signaling pathways (RAF/MEK/ERK and PI3K/AKT) in DLD-1 cells (CRC cells carrying one oncogenic KRAS allele). To this end, DLD-1 serum-starved cells (0.1% FCS) were treated with P14 (100 μM) at different times, and activation of AKT and ERK was evaluated by Western blot. […] As a 3-hour treatment was associated with major effects, we chose this duration for the subsequent experiments with the other compounds. Next, DLD-1 serum-starved cells were treated with P14A-P14C at 100 μM for 3 hours and activation of AKT and ERK was assessed as above. […] The kinetics of RAS downstream signaling was analyzed in P14B-treated cells compared to 10% FBS serum.

[2] = tested on: ERK and AKT in hTERT-RPE cells; test: Western blot of AKT and ERK activation in serum-starved hTERT-RPE cells; details: 100 μM
Text: as §1, with “Cells were tested once per month for mycoplasma contamination.” left out
For analysis of RAS signalling, cells were lysed in a buffer containing 67 mM Tris-HCl pH 6.8 and 2% SDS and then the samples were heated at 97° C. for 15 minutes. Protein concentration of the lysates was assessed using the Lowry method. […]
Comparison of Ras signaling between DLD-1, DLD-1-KO and hTERT-RPE cells treated with P14B since important differences were observed between the viability of cells treated with P14B depending on their expression or lack of expression of oncogenic KRAS, we further studied whether these discrepancies were reflected also in KRAS downstream signaling. Serum-starved cells (0.1% FCS) were treated with P14B (100 μM) and activation of AKT and ERK was evaluated by WB. […]

hTERT-RPE cells = test: MTS cell viability assay, hTERT-RPE; details: non-transformed hTERT-RPE cells, at approximately 80 μM
Text: as §1
10,000 cells in 50 µL of 10% FBS-containing medium, were cultured for 24 hours and then treated with the compounds (50 μL final volume) for 48 h hours in each well of a 96-well plate (100 μL final volume). MTS viability assay (CellTiter 96® Aqueous One Solution Cell Proliferation Assay, Promega G3580) was assessed following the company conditions. The absorbance of each well was measured with a multimode plate reader (Spark, Tecan) at 490 nm. The percentage of cell viability was calculated by dividing the absorbance of each well by the average absorbance of the control wells. […]

DLD-1 cells [3] = test: 3D on-top Matrigel assay
Method: FIG. 6B is a series of images of cells. In total 2.5×10^4 DLD-1 cells were cultured on top of a thin basement membrane matrix (Matrigel) overlaid with a dilute solution of this basement membrane matrix (3D on-top Matrigel assay). At the time of seeding or 24 h later, cells were treated with P14B ([…] after seeding the colonies that had formed were analysed. Representative phase-contrast images are shown. All scale bars, […]
3D on-top Matrigel assay was performed as described in (Cabot et al., 2021).
Since both inhibition and sustained activation of RAS signaling are related to a decrease in cell survival, we analyzed the viability of the CRC cell lines DLD-1 (expressing oncogenic KRAS) and DLD-1-KO (oncogenic KRAS allele deleted), and the non-transformed cell line hTERT-RPE. […] At the IC50 of approximately 80 μM for DLD-1 cells, the viability of DLD-1-KO and of non-transformed cells was not affected (FIG. 6A). […] The effect of P14B in DLD-1 cells cultured in 3D conditions was also determined. […] Consequently, we conclude that P14B selectively reduces the viability of CRC cells expressing oncogenic KRAS, causing minor effects if these cells have been knocked out for oncogenic KRAS or in non-transformed cells. Thereby, P14B might be considered as an inducer of apoptosis in CRC with oncogenic KRAS.

DLD-1 cells [4] = test: Cleaved caspase-3 Western blot, DLD-1; details: DLD-1 cells treated 34 h or 48 h
Method: FIG. 6C is a blot showing extracts of DLD-1, DLD-1-KO and RPE cells at 34 h. and 48 h. DLD-1 cells treated with P14B for 36 h and 48 h were lysed and the expression of the apoptosis marker cleaved caspase-3 was analyzed by Western blot. Cells treated with the apoptosis inducer palmitic acid (PA) were used as a positive control.
Proteins were resolved by SDS-PAGE, transferred onto PVDF membranes (Immobilon-P, Millipore) and Western blot was performed as previously described (Cabot et al, Oncogene 2021). […]
Since both inhibition and sustained activation of RAS signaling are related to a decrease in cell survival, we analyzed the viability of the CRC cell lines DLD-1 (expressing oncogenic KRAS) and DLD-1-KO (oncogenic KRAS allele deleted), and the non-transformed cell line hTERT-RPE. […] The effect of P14B in DLD-1 cells cultured in 3D conditions was also determined. […]

[5] = DLD-1 serum-starved cells, 100 μM, 3 hours
[6] = DLD-1 starved cells, time course 15 min to 6 hours

Question: For `COc1ccc(C(c2c(C)n[nH]c2O)c2c(C)n[nH]c2O)cc1Oc1ccc([N+](=O)[O-])cc1` [Example P14B], which “AKT and ERK phosphorylation” value ([1]; DLD-1 serum-starved cells (0.1% FCS), 100 μM) is on record?
Answer: dramatically increased; also recorded: increases endogenous downstream RAS signaling

Question: And the “activation of AKT and ERK” value [1, 5]?
Answer: activated AKT and ERK kinases; also recorded: increase AKT and/or ERK signalling

Question: And the “relative capacity to activate Ras effectors ERK and AKT among the compounds” value [1, 5]?
Answer: most efficient; also recorded: greatest capacity to activate Ras signaling; also recorded: highest activation of both Ras effectors

Question: And the “duration of ERK phosphorylation compared with 10% FBS” value [1, 6]?
Answer: maintained for a longer time; also recorded: more sustained

Question: What about the “onset of ERK and MEK activation compared with 10% FBS” value [1, 6] of the same compound?
Answer: clearly delayed

Question: What about the “AKT and ERK phosphorylation” value [2] of the same compound?
Answer: no significant increase

Question: And the cell viability (hTERT-RPE cells)?
Answer: not affected

Question: What about the “size of the colonies in Matrigel” value (DLD-1 cells [3]; P14B added 24 h after seeding, 40 μM) of the same compound?
Answer: clear reduction in the size of the colonies

Question: What about the “capacity to form colonies in Matrigel” value (DLD-1 cells [3]; P14B added when seeding the cells, 10 μM) of the same compound?
Answer: drastic reduction in the capacity to form colonies

Question: And the “cleaved caspase-3 expression” value (DLD-1 cells [4])?
Answer: only detected in DLD-1-treated cells

Source: US20260217656A1, “Compounds Affecting KRAS” (UNIVERSITAT DE BARCELONA, priority 2022, published 2026)
